Data from patent US20250221410A1, “SUBSTITUTED 2-C-AZINES AND SALTS THEREOF, AND USE THEREOF AS HERBICIDAL ACTIVE SUBSTANCES” (BAYER AKTIENGESELLSCHAFT, priority 2022, published 2025).

Columns and labels:
[1] = tested on: ABUTH: Abutilon theophrasti; test: Post-emergence herbicidal efficacy at 1280 g/ha, ABUTH; type: in vivo; settings: rated visually after about 3 weeks vs untreated controls, 100% = plants have died, 0% = like control plants
How it was run: (§1)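 Greenhouse post-emergence spray: one-leaf stage, 2–3 wk after sowing; WP/EC as aqueous suspension/emulsion + 0.5% additive, 600 L/ha water. Visual % activity vs untreated at ~3 wk; 100% = dead, 0% = as control.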

[2] = tested on: AMARE: Amaranthus retroflexus; test: Post-emergence herbicidal efficacy at 1280 g/ha, AMARE; type: in vivo; settings: rated visually after about 3 weeks vs untreated controls, 100% = plants have died, 0% = like control plants
How it was run: as §1

[3] = tested on: DIGSA: Digitaria sanguinalis; test: Post-emergence herbicidal efficacy at 1280 g/ha, DIGSA; type: in vivo; settings: rated visually after about 3 weeks vs untreated controls, 100% = plants have died, 0% = like control plants
How it was run: as §1

[4] = tested on: ECHCG: Echinochloa crus-galli; test: Post-emergence herbicidal efficacy at 1280 g/ha, ECHCG; type: in vivo; settings: rated visually after about 3 weeks vs untreated controls, 100% = plants have died, 0% = like control plants
How it was run: as §1

KCHSC: Kochia scoparia [5] = test: Post-emergence herbicidal efficacy at 1280 g/ha, KCHSC; type: in vivo; settings: visual rating about 3 weeks after treatment vs untreated controls
How it was run: as §1

[6] = tested on: MATIN: Matricaria inodora; test: Post-emergence herbicidal efficacy at 1280 g/ha, MATIN; type: in vivo; settings: visual rating about 3 weeks after treatment vs untreated controls
Procedure: (§2) Seeds of mono- and dicotyledonous weed plants were placed in plastic pots in sandy loam soil (doubly sown with in each case one species of mono- or dicotyledonous weed plants per pot), covered with soil and cultivated in a greenhouse under controlled growth conditions. 2 to 3 weeks after sowing, the test plants were treated at the one-leaf stage. The compounds of the invention, formulated in the form of wettable powders (WP) or as emulsion concentrates (EC), were applied to the green parts of the plants as aqueous suspension or emulsion with addition of 0.5% additive at a water application rate equivalent to 600 litres per hectare. After the test plants had been kept in the greenhouse under optimum growth conditions for about 3 weeks, the activity of the preparations was rated visually in comparison to untreated controls. For example, 100% activity=the plants have died, 0% activity=like control plants. Tables A1 to A12 below show the effects of selected compounds of the general formula (I) according to Table 1 on various harmful plants and at an application rate corresponding to 1280 g/ha, which were obtained by the trial procedure specified above.

POAAN: Poa annua [7] = test: Post-emergence herbicidal efficacy at 1280 g/ha, POAAN; type: in vivo; settings: visual rating about 3 weeks after treatment vs untreated controls
How it was run: as §1

SETVI: Setaria viridis [8] = test: Post-emergence herbicidal efficacy at 1280 g/ha, SETVI; type: in vivo; settings: visual rating about 3 weeks after treatment vs untreated controls
How it was run: as §1

STEME: Stellaria media [9] = test: Post-emergence herbicidal efficacy at 1280 g/ha, STEME; type: in vivo; settings: visual rating about 3 weeks after treatment vs untreated controls
How it was run: as §1

VERPE: Veronica persica [10] = test: Post-emergence herbicidal efficacy at 1280 g/ha, VERPE; type: in vivo; settings: visual rating about 3 weeks after treatment vs untreated controls
How it was run: as §1

[11] = tested on: AMARE: Amaranthus retroflexus; test: Post-emergence herbicidal efficacy at 80 g/ha, AMARE; type: in vivo; settings: visual rating about 3 weeks after treatment vs untreated controls
How it was run: (§3)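 Pot-grown weeds in sandy loam were sprayed at one-leaf stage (2–3 weeks post-sowing) with WP or EC formulations plus 0.5% additive at 600 l/ha water. About 3 weeks later in the greenhouse, activity was rated visually against untreated controls, 0% = like control, 100% = dead.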

VIOTR: Viola tricolor [12] = test: Post-emergence herbicidal efficacy at 80 g/ha, VIOTR; type: in vivo; settings: visual rating about 3 weeks after treatment vs untreated controls
Procedure: (§4) Seeds of monocotyledonous and dicotyledonous weeds and crop plants were placed in sandy loam in plastic or organic planting pots, covered with soil and cultivated in a greenhouse under controlled growth conditions. 2 to 3 weeks after sowing, the test plants were treated at the one-leaf stage. The compounds of the invention, formulated in the form of wettable powders (WP) or as emulsion concentrates (EC), were then sprayed onto the green parts of the plants as aqueous suspension or emulsion with addition of 0.5% additive at a water application rate of 600 l/ha (converted). After the test plants had been kept in the greenhouse under optimum growth conditions for about 3 weeks, the activity of the preparations was rated visually in comparison to untreated controls. For example, 100% activity=the plants have died, 0% activity=like control plants. Tables B1 to B10 below show the effects of selected compounds of the general formula (I) according to Table 1 on various harmful plants and an application rate corresponding to 80 g/ha, which were obtained by the experimental procedure mentioned above.

[13] = tested on: ABUTH: Abutilon theophrasti; test: Pre-emergence herbicide efficacy at 1280 g/ha, ABUTH; type: in vivo; settings: visual scoring after about 3 weeks vs untreated controls
How it was run: (§5)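 Visual scoring after about 3 weeks in the greenhouse, as percent activity relative to untreated pots, where 0% matches controls and 100% means dead plants. Treatment was pre-emergence: WP or EC formulations sprayed onto soil covering the sown seeds, 600 L/ha water plus 0.5% additive.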

[14] = tested on: AMARE: Amaranthus retroflexus; test: Pre-emergence herbicide efficacy at 1280 g/ha, AMARE; type: in vivo; settings: visual scoring after about 3 weeks vs untreated controls
How it was run: as §5

[15] = tested on: DIGSA: Digitaria sanguinalis; test: Pre-emergence herbicide efficacy at 1280 g/ha, DIGSA; type: in vivo; settings: visual scoring after about 3 weeks vs untreated controls
How it was run: as §5

[16] = tested on: ECHCG: Echinochloa crus-galli; test: Pre-emergence herbicide efficacy at 1280 g/ha, ECHCG; type: in vivo; settings: visual scoring after about 3 weeks vs untreated controls
How it was run: as §5

KCHSC: Kochia scoparia [17] = test: Pre-emergence herbicide efficacy at 1280 g/ha, KCHSC; type: in vivo; settings: visual scoring after about 3 weeks vs untreated controls
How it was run: as §5

[18] = tested on: MATIN: Matricaria inodora; test: Pre-emergence herbicide efficacy at 1280 g/ha, MATIN; type: in vivo; settings: visual scoring after about 3 weeks vs untreated controls
How it was run: as §5

POAAN: Poa annua [19] = test: Pre-emergence herbicide efficacy at 1280 g/ha, POAAN; type: in vivo; settings: visual scoring after about 3 weeks vs untreated controls
How it was run: as §5

SETVI: Setaria viridis [20] = test: Pre-emergence herbicide efficacy at 1280 g/ha, SETVI; type: in vivo; settings: visual scoring vs untreated controls
How it was run: as §5

STEME: Stellaria media [21] = test: Pre-emergence herbicide efficacy at 1280 g/ha, STEME; type: in vivo; settings: visual scoring vs untreated controls
How it was run: as §5

VERPE: Veronica persica [22] = test: Pre-emergence herbicide efficacy at 1280 g/ha, VERPE; type: in vivo; settings: visual scoring vs untreated controls
How it was run: as §5

[23] = tested on: AMARE: Amaranthus retroflexus; test: Pre-emergence herbicide efficacy at 80 g/ha, AMARE; type: in vivo; settings: scored visually after about 3 weeks
How it was run: (§6)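 Pre-emergence soil-surface spray, WP/EC formulation, 0.5% additive, 600 l/ha water volume. Greenhouse, ~3 weeks. Visual % activity vs untreated (100% = dead plants).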

POLCO [24] = test: Pre-emergence herbicide efficacy at 80 g/ha, POLCO; type: in vivo; settings: Polygonum convolvulus, scored visually after about 3 weeks
How it was run: as §6

VIOTR: Viola tricolor [25] = test: Pre-emergence herbicide efficacy at 80 g/ha, VIOTR; type: in vivo; settings: scored visually after about 3 weeks
Excerpt: (§7) Seeds of monocotyledonous and dicotyledonous weed plants and crop plants were placed in plastic or organic planting pots and covered with soil. The compounds of the invention, formulated in the form of wettable powders (WP) or as emulsion concentrates (EC), were then applied to the surface of the covering soil as aqueous suspension or emulsion with addition of 0.5% additive at a water application rate equivalent to 600 l/ha. After the treatment, the pots were placed in a greenhouse and kept under good growth conditions for the test plants. After about 3 weeks, the efficacy of the preparations was scored visually in comparison with untreated controls as percentages. For example, 100% activity=the plants have died, 0% activity=like control plants. Tables D1 to D12 below show the effects of selected compounds of the general formula (I) according to Table 1 on various harmful plants and an application rate corresponding to 80 g/ha, which were obtained by the experimental procedure mentioned above.

[26] = tested on: ALOMY: Alopecurus myosuroides; test: Post-emergence herbicidal efficacy at 1280 g/ha, ALOMY; type: in vivo; settings: rated visually after about 3 weeks vs untreated controls, 100% = plants have died, 0% = like control plants
Procedure: as §2

LOLRI: Lolium rigidum = test: Post-emergence herbicidal efficacy at 1280 g/ha, LOLRI; type: in vivo; settings: visual rating about 3 weeks after treatment vs untreated controls
Procedure: as §2

[27] = tested on: ALOMY: Alopecurus myosuroides; test: Pre-emergence herbicide efficacy at 1280 g/ha, ALOMY; type: in vivo; settings: visual scoring after about 3 weeks vs untreated controls
Excerpt: Seeds of mono- and dicotyledonous weed plants were placed in plastic pots in sandy loam soil (doubly sown with one species each of mono- or dicotyledonous weed plants per pot) and covered with soil. The compounds of the invention, formulated in the form of wettable powders (WP) or as emulsion concentrates (EC), were then applied to the surface of the covering soil as aqueous suspension or emulsion with addition of 0.5% additive at a water application rate of 600 litres per hectare (converted). After the treatment, the pots were placed in a greenhouse and kept under good growth conditions for the test plants. After about 3 weeks, the efficacy of the preparations was scored visually in comparison with untreated controls as percentages. For example, 100% activity=the plants have died, 0% activity=like control plants. Tables C1 to C12 below show the effects of selected compounds of the general formula (I) according to Table 1 on various harmful plants and at an application rate corresponding to 1280 g/ha, which were obtained by the trial procedure specified above.

KCHSC: Kochia scoparia [28] = test: Pre-emergence herbicide efficacy at 80 g/ha, KCHSC; type: in vivo; settings: scored visually after about 3 weeks
Excerpt: as §7

POLCO [29] = test: Post-emergence herbicidal efficacy at 80 g/ha, POLCO; type: in vivo, Polygonum convolvulus; settings: visual rating about 3 weeks after treatment vs untreated controls
Procedure: as §4

VERPE: Veronica persica [30] = test: Post-emergence herbicidal efficacy at 80 g/ha, VERPE; type: in vivo; settings: visual rating about 3 weeks after treatment vs untreated controls
How it was run: as §3

VERPE: Veronica persica [31] = test: Pre-emergence herbicide efficacy at 80 g/ha, VERPE; type: in vivo; settings: scored visually after about 3 weeks
Excerpt: as §7

SMILES	Post-emergence efficacy at 1280 g/ha against ABUTH in % [1] [%]	Post-emergence efficacy at 1280 g/ha against AMARE in % [2] [%]	Post-emergence efficacy at 1280 g/ha against DIGSA in % [3] [%]	Post-emergence efficacy at 1280 g/ha against ECHCG in % [4] [%]	Post-emergence efficacy against KCHSC (KCHSC: Kochia scoparia [5]) [%]	Post-emergence efficacy against MATIN [6] [%]	Post-emergence efficacy against POAAN (POAAN: Poa annua [7]) [%]	Post-emergence efficacy against SETVI (SETVI: Setaria viridis [8]) [%]	Post-emergence efficacy against STEME (STEME: Stellaria media [9]) [%]	Post-emergence efficacy against VERPE (VERPE: Veronica persica [10]) [%]	Pre-emergence efficacy against ABUTH [13] [%]	Pre-emergence efficacy against AMARE [14] [%]	Pre-emergence efficacy against DIGSA [15] [%]	Pre-emergence efficacy against ECHCG [16] [%]	Pre-emergence efficacy against KCHSC (KCHSC: Kochia scoparia [17]) [%]	Pre-emergence efficacy against POAAN (POAAN: Poa annua [19]) [%]	Pre-emergence efficacy against SETVI in % (SETVI: Setaria viridis [20]) [%]	Pre-emergence efficacy against STEME in % (STEME: Stellaria media [21]) [%]	Pre-emergence efficacy against VERPE in % (VERPE: Veronica persica [22]) [%]	Pre-emergence efficacy against AMARE in % [23] [%]	further results
N#Cc1cccc(Cc2ncc(F)cn2)c1-n1cc(C(F)(F)F)cn1 [Example 1-131]	100	100	90	100	100	90	100	90	100	100	100	100	100	100	100	90	100	100	100	100	Post-emergence efficacy against AMARE [11]: 100%; Post-emergence efficacy against VIOTR (VIOTR: Viola tricolor [12]): 90%; Pre-emergence efficacy against MATIN [18]: 100%; Pre-emergence efficacy against POLCO in % (POLCO [24]): 80%; Pre-emergence efficacy against VIOTR in % (VIOTR: Viola tricolor [25]): 90%
Fc1cnc(Cc2ccccc2Oc2ncc(Cl)cn2)nc1 [Example 1-70]	100	90	–	–	–	90	–	–	90	90	90	100	100	90	100	90	100	100	90	–	Pre-emergence efficacy against MATIN [18]: 100%
Cc1cccc(Oc2ncc(Cl)cc2F)c1Cc1ncc(Cl)cn1 [Example 1-66]	100	100	100	100	100	–	100	100	100	100	100	100	100	100	100	100	100	100	100	–	Post-emergence efficacy at 1280 g/ha against ALOMY in % [26]: 90%; Post-emergence efficacy against LOLRI (LOLRI: Lolium rigidum): 90%; Pre-emergence efficacy against ALOMY [27]: 90%
Clc1cnc(Cc2ccccc2Oc2ncc(Cl)cn2)nc1 [Example 1-50]	–	–	–	–	–	–	–	–	–	–	–	–	–	–	–	–	–	–	–	90	Pre-emergence efficacy against KCHSC in % (KCHSC: Kochia scoparia [28]): 90%
O=S(=O)(CCC(F)(F)F)Oc1c(F)cccc1Cc1ncc(Cl)cn1 [Example 1-16]	–	–	–	–	–	–	–	–	–	–	–	–	–	–	–	–	–	–	–	100	Post-emergence efficacy against AMARE [11]: 100%; Post-emergence efficacy against POLCO (POLCO [29]): 80%; Post-emergence efficacy against VERPE (VERPE: Veronica persica [30]): 90%; Pre-emergence efficacy against VERPE in % (VERPE: Veronica persica [31]): 90%
